Measured values taken from PubChem BioAssay AID330 (DTP/NCI, 2004).
“And” between values parts separate entries of the source, which are not always exact repeats. Equal entries are not always repeated. Toxic doses and inconclusive results are not listed. The calls were made as follows: active = survival T/C of 150% or more; inactive = T/C below 125% in these data.

Tested on: P388 leukemia ip, CD2F1 mice, survival T/C
Assay: NCI In Vivo Anticancer Drug Screen. Data for tumor model P388 Leukemia (intraperitoneal) in CD2F1 (CDF1) mice
Details: endpoint: median survival time, higher = longer survival
How it was run: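 Mice carrying the transplanted tumor received test compound or vehicle. Survival was recorded in each group, and the value is the treated-group measurement divided by that of the vehicle-treated control group.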

[1] = dose: 50.0 mg/kg/injection, schedule: Q01DX009 (ip), vehicle: saline with Tween-80
[2] = dose: 100.0 mg/kg/injection, schedule: Q01DX009 (ip), vehicle: saline with Tween-80
[3] = dose: 50.0 mg/kg/injection, schedule: Q01DX009 (ip), vehicle: Klucel (hydroxypropylcellulose) (HPC)
[4] = dose: 100.0 mg/kg/injection, schedule: Q01DX009 (ip), vehicle: Klucel (hydroxypropylcellulose) (HPC)
[5] = dose: 200.0 mg/kg/injection, schedule: Q01DX009 (ip), vehicle: Klucel (hydroxypropylcellulose) (HPC)
[6] = dose: 50.0 mg/kg/injection, schedule: Q01DX001 (ip), vehicle: saline with Tween-80
[7] = dose: 100.0 mg/kg/injection, schedule: Q01DX001 (ip), vehicle: saline with Tween-80
[8] = dose: 200.0 mg/kg/injection, schedule: Q01DX009 (ip), vehicle: saline with Tween-80
[9] = dose: 400.0 mg/kg/injection, schedule: Q01DX009 (ip), vehicle: saline with Tween-80
[10] = dose: 60.0 mg/kg/injection, schedule: Q01DX005 (ip), vehicle: Klucel (hydroxypropylcellulose) (HPC)
[11] = dose: 120.0 mg/kg/injection, schedule: Q01DX005 (ip), vehicle: Klucel (hydroxypropylcellulose) (HPC)
[12] = dose: 240.0 mg/kg/injection, schedule: Q01DX005 (ip), vehicle: Klucel (hydroxypropylcellulose) (HPC)
[13] = dose: 25.0 mg/kg/injection, schedule: Q01DX009 (ip), vehicle: water
[14] = dose: 50.0 mg/kg/injection, schedule: Q01DX009 (ip), vehicle: water
[15] = dose: 100.0 mg/kg/injection, schedule: Q01DX009 (ip), vehicle: water
[16] = dose: 200.0 mg/kg/injection, schedule: Q01DX009 (ip), vehicle: water
[17] = dose: 50.0 mg/kg/injection, schedule: Q01DX005 (ip), vehicle: Klucel (hydroxypropylcellulose) (HPC)
[18] = dose: 100.0 mg/kg/injection, schedule: Q01DX005 (ip), vehicle: Klucel (hydroxypropylcellulose) (HPC)
[19] = dose: 200.0 mg/kg/injection, schedule: Q01DX005 (ip), vehicle: Klucel (hydroxypropylcellulose) (HPC)
[20] = dose: 50.0 mg/kg/injection, schedule: Q01DX005 (ip), vehicle: saline with Tween-80
[21] = dose: 100.0 mg/kg/injection, schedule: Q01DX005 (ip), vehicle: saline with Tween-80
[22] = dose: 200.0 mg/kg/injection, schedule: Q01DX005 (ip), vehicle: saline with Tween-80

Measured: T/C

CC(CN(C)C)OC(=O)c1ccc(Cl)cc1Cl (stereo not given)
inactive: dose: 50.0 mg/kg/injection, schedule: Q01DX005 (ip), vehicle: saline 100 % of control | dose: 100.0 mg/kg/injection, schedule: Q01DX005 (ip), vehicle: saline 98 % of control | dose: 200.0 mg/kg/injection, schedule: Q01DX005 (ip), vehicle: saline 100 % of control

C[C@H](N)[C@H](O)c1cccc(O)c1
inactive: dose: 1.5 mg/kg/injection, schedule: Q01DX005 (ip), vehicle: saline 103 % of control | dose: 3.0 mg/kg/injection, schedule: Q01DX005 (ip), vehicle: saline 99 % of control | dose: 6.0 mg/kg/injection, schedule: Q01DX005 (ip), vehicle: saline 110 % of control | dose: 6.25 mg/kg/injection, schedule: Q01DX005 (ip), vehicle: saline 115 % of control | dose: 25.0 mg/kg/injection, schedule: Q01DX005 (ip), vehicle: saline 100 % of control

CN(C#N)CCc1ccccc1
inactive: [1] 100 % of control | [2] 96 % of control

Cc1nnc2c3nccnc3c(Cl)nn12
inactive: dose: 15.0 mg/kg/injection, schedule: Q01DX005 (ip), vehicle: saline with Tween-80 105 % of control | dose: 30.0 mg/kg/injection, schedule: Q01DX005 (ip), vehicle: saline with Tween-80 112 % of control | dose: 60.0 mg/kg/injection, schedule: Q01DX005 (ip), vehicle: saline with Tween-80 102 % of control and 105 % of control

COc1cc(/C=C/C(NC(C)=O)c2cccc(O)c(=O)c2)cc(OC)c1OC (stereo not given)
inactive: dose: 12.5 mg/kg/injection, schedule: Q01DX009 (ip), vehicle: Klucel (hydroxypropylcellulose) (HPC) 90 % of control | dose: 25.0 mg/kg/injection, schedule: Q01DX009 (ip), vehicle: Klucel (hydroxypropylcellulose) (HPC) 93 % of control | [3] 98 % of control | [4] 107 % of control | [5] 116 % of control

CN(C)c1ccc(/C=c2\[nH]c(=O)/c(=C\c3ccc(N(C)C)cc3)[nH]c2=O)cc1
inactive: dose: 12.5 mg/kg/injection, schedule: Q01DX001 (ip), vehicle: saline with Tween-80 97 % of control | dose: 25.0 mg/kg/injection, schedule: Q01DX001 (ip), vehicle: saline with Tween-80 99 % of control | [6] 99 % of control | [1] 98 % of control | [7] 99 % of control | [2] 90 % of control | [8] 87 % of control | [9] 90 % of control

CC1CCN(C(=O)Nc2c(Cl)cccc2Cl)CC1
inactive: [10] 99 % of control | [11] 101 % of control | [12] 94 % of control

O=P(c1ccccc1)(c1ccccc1)c1ccccc1.O=P(c1ccccc1)(c1ccccc1)c1ccccc1.O=P(c1ccccc1)(c1ccccc1)c1ccccc1.O=P(c1ccccc1)(c1ccccc1)c1ccccc1.[O-][Cl+3]([O-])([O-])O.[Zn+2]
inactive: [6] 104 % of control | [7] 103 % of control and 90 % of control

Cc1ccc(Nc2ccc(Cl)cc2[N+](=O)[O-])cc1
inactive: dose: 15.0 mg/kg/injection, schedule: Q01DX005 (ip), vehicle: Klucel + Tween-80 95 % of control | dose: 30.0 mg/kg/injection, schedule: Q01DX005 (ip), vehicle: Klucel + Tween-80 98 % of control | dose: 60.0 mg/kg/injection, schedule: Q01DX005 (ip), vehicle: Klucel + Tween-80 100 % of control and 94 % of control

CC(N)C(=O)OCN1C(=O)C2C3C=CC(C2C1=O)C1C(=O)N(COC(=O)C(C)N)C(=O)C31 (stereo not given)
inactive: [13] 100 % of control | [14] 100 % of control | [15] 112 % of control | [16] 121 % of control

CC1[N-]CCCN(CCN(C)C)CCC[N-]C(C)C2CCCC1[N-]2.[Ni+3].[O-][Cl+3]([O-])([O-])O (stereo not given)
inactive: dose: 100.0 mg/kg/injection, schedule: Q01DX001 (ip), vehicle: saline 106 % of control

CC1=C(/C=C/C(C)=C/C=C/C(C)=C/C=C2/CCOC2=O)C(C)(C)CCC1
inactive: [6] 96 % of control | [7] 96 % of control | dose: 200.0 mg/kg/injection, schedule: Q01DX001 (ip), vehicle: saline with Tween-80 100 % of control

C[Si](C)(C)CC[Si]12OCCN(CCO1)CCO2
inactive: [17] 106 % of control | [18] 104 % of control | [19] 92 % of control

CC1CCCN2C(=O)CN(c3ccccc3)CC(=O)N12 (stereo not given)
inactive: [20] 98 % of control | [21] 103 % of control | [22] 99 % of control

Cc1cn(C2CC(O)C(CS)O2)c(=O)[nH]c1=O (stereo not given)
inactive: [20] 104 % of control | [21] 105 % of control | [22] 103 % of control

Cc1cc(C)c(O)c(C(c2ccccc2)c2cc(C)cc(C)c2O)c1
inactive: [1] 99 % of control | [2] 118 % of control | [8] 115 % of control

O=c1oc(-c2cccc(F)c2)ns1
inactive: [4] 115 % of control | [5] 116 % of control | dose: 400.0 mg/kg/injection, schedule: Q01DX009 (ip), vehicle: Klucel (hydroxypropylcellulose) (HPC) 115 % of control

NC(=O)C1ONC(=O)C1N (stereo not given)
inactive: [13] 106 % of control | [14] 103 % of control | dose: 100.0 mg/kg/injection, schedule: Q01DX001 (ip), vehicle: water 98 % of control | [15] 104 % of control | dose: 100.0 mg/kg/injection, schedule: Q04DX003 (ip), vehicle: water 100 % of control | dose: 200.0 mg/kg/injection, schedule: Q01DX001 (ip), vehicle: water 100 % of control | [16] 120 % of control | dose: 200.0 mg/kg/injection, schedule: Q04DX003 (ip), vehicle: water 101 % of control | dose: 400.0 mg/kg/injection, schedule: Q01DX001 (ip), vehicle: water 92 % of control | dose: 400.0 mg/kg/injection, schedule: Q04DX003 (ip), vehicle: water 101 % of control | dose: 600.0 mg/kg/injection, schedule: Q01DX001 (ip), vehicle: water 96 % of control

CCn1c2ccccc2c2cc(N=Nc3[nH]c4ccccc4c3CN(C)C)ccc21
inactive: [1] 107 % of control and 108 % of control (2×) | [2] 105 % of control and 106 % of control | [8] 100 % of control and 115 % of control and 118 % of control

Cc1c(CN2CCOC(c3ccccc3)C2C)c(=O)n(-c2ccccc2)n1C (stereo not given)
inactive: [3] 93 % of control | [4] 103 % of control

CC(=O)NC(Cc1ccsc1)C(=O)O (stereo not given)
inactive: dose: 50.0 mg/kg/injection, schedule: Q01DX009 (ip), vehicle: saline 108 % of control | dose: 100.0 mg/kg/injection, schedule: Q01DX009 (ip), vehicle: saline 92 % of control | dose: 200.0 mg/kg/injection, schedule: Q01DX009 (ip), vehicle: saline 99 % of control

CNS(=O)(=O)c1ccc2c(c1)[nH]c(=S)n2C
inactive: [2] 95 % of control | [8] 90 % of control | [9] 90 % of control

Clc1cccc(Cl)c1C(Nc1nc2ccccc2s1)Nc1nc2ccccc2s1
inactive: dose: 50.0 mg/kg/injection, schedule: Q01DX005 (ip), vehicle: Klucel + Tween-80 110 % of control | dose: 100.0 mg/kg/injection, schedule: Q01DX005 (ip), vehicle: Klucel + Tween-80 106 % of control | dose: 200.0 mg/kg/injection, schedule: Q01DX005 (ip), vehicle: Klucel + Tween-80 109 % of control

COc1cc(-c2ccc(O)cc2)c(OC)c(O)c1-c1ccc(O)cc1
inactive: dose: 0.15 mg/kg/injection, schedule: Q01DX009 (ip), vehicle: saline 90 % of control | dose: 0.3 mg/kg/injection, schedule: Q01DX009 (ip), vehicle: saline 90 % of control | dose: 0.6 mg/kg/injection, schedule: Q01DX009 (ip), vehicle: saline 107 % of control | dose: 1.2 mg/kg/injection, schedule: Q01DX009 (ip), vehicle: saline 89 % of control

COc1cc(Br)c(C(C)(C)C#N)cc1OC
inactive: [17] 101 % of control | [18] 101 % of control | [19] 100 % of control

Cc1cc(NCCc2ccccc2)cc(=O)n1CCc1ccccc1
inactive: [10] 97 % of control | [11] 100 % of control | [12] 94 % of control

CC(C)C1N(N2C(=O)CS(=O)(=O)C2C(C)C)C(=O)CS1(=O)=O (stereo not given)
inactive: [20] 98 % of control | [21] 101 % of control | [22] 102 % of control
